Laboratory results as given in US11026943B2, “Aminoquinoline derivatives and uses thereof” (UNIVERSITY OF DELHI, priority 2012, dated 2021).
Like-named read-outs stand apart in the source and are kept apart here.

Experiments:
[1] = test system: CQ-resistant (W2 clone) strain of P. falciparum; test: In vitro antimalarial activity, CQ-resistant strain; assay type: cell-based, Plasmodium falciparum; conditions: for IC50: Plasmodium falciparum; for P. falciparum (W2 Clone) S.I.: selectivity index = IC50 cytotoxicity to Vero cells / IC50 antimalarial
Text: (§1) Med. Chem. 2005, 13, 4458; Khan, I. A. Lipids 2004, 37, 169].

[2] = test system: CQ-sensitive (D6 clone) strain of P. falciparum; test: In vitro antimalarial activity, CQ-sensitive strain; assay type: cell-based, Plasmodium falciparum; conditions: for IC50: Plasmodium falciparum; for P. falciparum (D6 Clone) S.I.: selectivity index = IC50 cytotoxicity to Vero cells / IC50 antimalarial
Text: as §1

VERO cells = test: In vitro cytotoxicity to mammalian cells, VERO; assay type: cell-based; conditions: Chlorocebus sabaeus, Vero; in vitro cytotoxicity to mammalian cells
Text: as §1

HepG2 cells = test: In vitro cytotoxicity to mammalian cells, HepG2; assay type: cell-based; conditions: Homo sapiens
Text: as §1

LLC-PK-1 cells = test: In vitro cytotoxicity to mammalian cells, LLC-PK-1; assay type: cell-based; conditions: Sus scrofa, LLC-PK1
Text: as §1

parasitemia = test: In-vivo antimalarial activity in mice
[3] = Solubility (solvent listed in compound tables); assay type: physicochemical
[4] = CQ-resistant W2 clone, read-out: P. falciparum (W2 Clone) IC50
[5] = CQ-sensitive D6 clone, read-out: P. falciparum (D6 Clone) IC50
[6] = mice, PO, 100 mg/kg × 3 days post-infection
[7] = solvents listed for the compound

Cc1cc(Cl)nc(NCCCNc2ccnc3cc(Cl)ccc23)n1 [11b]
IC50 [1, 4]: 1.24 µM
P. falciparum (W2 Clone) S.I. [1]: (>48)
IC50 [2, 5]: 0.27 µM
P. falciparum (D6 Clone) S.I. [2]: (>222)
IC50 (VERO cells): > 60 µM
IC50 (HepG2 cells): > 60 µM
IC50 (LLC-PK-1 cells): > 60 µM

Cc1cc(NCCNc2ccnc3cc(Cl)ccc23)nc(Cl)n1 [10a]
IC50 [1, 4]: 0.34 µM
P. falciparum (W2 Clone) S.I. [1]: (>176)
IC50 [2, 5]: 0.21 µM
P. falciparum (D6 Clone) S.I. [2]: (>285)
IC50 (VERO cells): > 60 µM
IC50 (HepG2 cells): > 60 µM
IC50 (LLC-PK-1 cells): > 60 µM

Cc1cc(NCCCCNc2ccnc3cc(Cl)ccc23)nc(Cl)n1 [10c]
IC50 [1, 4]: 0.69 µM
P. falciparum (W2 Clone) S.I. [1]: (>87)
IC50 [2, 5]: 0.151 µM
P. falciparum (D6 Clone) S.I. [2]: (>398)
IC50 (VERO cells): > 60 µM
IC50 (HepG2 cells): > 60 µM
IC50 (LLC-PK-1 cells): > 60 µM

Cc1cc(NCCCCCCNc2ccnc3cc(Cl)ccc23)nc(Cl)n1 [10d]
IC50 [1, 4]: 0.544 µM
P. falciparum (W2 Clone) S.I. [1]: 27.2
IC50 [2, 5]: 0.469 µM
P. falciparum (D6 Clone) S.I. [2]: 73.7
IC50 (VERO cells): 34.6 µM
IC50 (HepG2 cells): 9.3 µM
IC50 (LLC-PK-1 cells): 14.8 µM

Cc1cc(Cl)nc(NCCNc2ccnc3cc(Cl)ccc23)n1 [11a]
IC50 [1, 4]: 0.91 µM
P. falciparum (W2 Clone) S.I. [1]: 47.2
IC50 [2, 5]: 0.27 µM
P. falciparum (D6 Clone) S.I. [2]: 159.2
IC50 (VERO cells): 43 µM
IC50 (HepG2 cells): 43 µM
IC50 (LLC-PK-1 cells): 41.6 µM

Cc1cc(NCCCNc2ccnc3cc(Cl)ccc23)nc(Cl)n1 [10b]
IC50 [1, 4]: 0.74 µM
P. falciparum (W2 Clone) S.I. [1]: (>80)
IC50 [2, 5]: 0.35 µM
P. falciparum (D6 Clone) S.I. [2]: (>170)
IC50 (VERO cells): > 60 µM
IC50 (HepG2 cells): > 60 µM
IC50 (LLC-PK-1 cells): > 60 µM

COc1cccc2c1C(=O)c1c(O)c3c(c(O)c1C2=O)C[C@@](O)(C(=O)CO)C[C@@H]3O[C@H]1C[C@H](N)[C@H](O)[C@H](C)O1 [Doxorubicin]
IC50 (VERO cells): 8.2 µM
IC50 (HepG2 cells): < 1 µM
IC50 (LLC-PK-1 cells): 1 µM

Cc1cc(Cl)nc(NCCCCCCNc2ccnc3cc(Cl)ccc23)n1 [11d]
IC50 [1, 4]: 0.568 µM
P. falciparum (W2 Clone) S.I. [1]: 97.8
IC50 [2, 5]: 0.165 µM
P. falciparum (D6 Clone) S.I. [2]: 336.9
IC50 (VERO cells): 55.6 µM
IC50 (HepG2 cells): 8.1 µM
IC50 (LLC-PK-1 cells): 23.4 µM

Cc1cc(NCCCNc2ccnc3cc(Cl)ccc23)nc(N2CCCCC2)n1 [12b, N-(7-Chloro-quinolin-4-yl)-N′-(6-methyl-2-piperidin-1-yl-pyrimidin-4-yl)-propane-1,3-diamine]
IC50 [1, 4]: 0.211 µM
P. falciparum (W2 Clone) S.I. [1]: (>284)
IC50 [2, 5]: 0.026 µM
P. falciparum (D6 Clone) S.I. [2]: (>2300)
IC50 (VERO cells): > 60 µM
IC50 (HepG2 cells): > 60 µM
IC50 (LLC-PK-1 cells): > 60 µM

CCN(CC)CCCC(C)Nc1ccnc2cc(Cl)ccc12 (stereo not drawn) [Chloroquine, chloroquine, reference compound]
IC50 ([1]; W2, read-out: P. falciparum (W2 Clone) IC50 (μM)): 0.43 µM
P. falciparum (W2 Clone) S.I. [1]: 140
IC50 ([2]; D6, read-out: P. falciparum (D6 Clone) IC50 (μM)): 0.048 µM
P. falciparum (D6 Clone) S.I. [2]: 1250
parasitemia suppression (parasitemia; day 5, 100 mg/kg for 3 days post infection, standard drug): 100%
Cure (number of mice without parasitemia till day 28 post-infection) (parasitemia; [6]): 0/5
MST (mean survival time) (parasitemia; [6]): 28 days
% Parasitemia suppression Day 5 (parasitemia; mice, PO, 100 mg/kg × 3 days post-infection, day 5): 100.00%
% Parasitemia suppression Day 7 (parasitemia; mice, PO, 100 mg/kg × 3 days post-infection, day 7): 100.00%
Survival (animals that survived day 28/total animals in group) (parasitemia; mice, PO, 100 mg/kg × 3 days post-infection, day 28): 5/5
Day of Death (parasitemia; mice, PO, 100 mg/kg × 3 days post-infection, per animal): 28/28/28/28/28

OCCCNc1nccc(N2CCN(c3ccnc4cc(Cl)ccc34)CC2)n1 [ATH 255]
SOLUBILITY ([3]; solvent named, Table 3): DMSO

Clc1ccc2c(NCCCNc3nc(Cl)cc(N4CCOCC4)n3)ccnc2c1 [SM 716]
SOLUBILITY ([3]; solvent named, Table 3): DMSO

Cc1cc(NCCCCCCNc2ccnc3cc(Cl)ccc23)nc(Cl)n1 [SM 504A]
SOLUBILITY ([3]; solvent named, Table 3): DMSO

Cc1cc(NCCNc2ccnc3cc(Cl)ccc23)nc(NCCCCO)n1 [MT1-189]
SOLUBILITY [3, 7]: MeOH, DMSO

CCN1CCN(c2nc(C)cc(NCCCNc3ccnc4cc(Cl)ccc34)n2)CC1 [SM 497]
SOLUBILITY ([3]; solvent named, Table 3): DMSO

Fc1ccc(Nc2ccnc(NCCCNc3ccnc4cc(Cl)ccc34)n2)cc1 [DKG818]
SOLUBILITY ([3]; solvent named, Table 4): DMSO

COc1ccc(Nc2nc(NCCNc3c4ccc(Cl)cc4nc4ccc(OC)cc34)nc(N3CCCCC3)n2)cc1 [ATH 189]
SOLUBILITY ([3]; solvent named, Table 3): DMSO

Cc1cc(N2CCN(c3ccnc4cc(Cl)ccc34)CC2)nc(Cl)n1 [ATH 237]
SOLUBILITY ([3]; solvent named, Table 3): DMSO

Cc1cc(N2CCN(c3ccnc4cc(Cl)ccc34)CC2)nc(NC2CCCCC2)n1 [ATH 241]
SOLUBILITY ([3]; solvent named, Table 3): DMSO

Cc1cc(NCCCCCCNc2ccnc3cc(Cl)ccc23)nc(N2CCOCC2)n1 [SM 506]
SOLUBILITY ([3]; solvent named, Table 3): DMSO

Cc1cc(Nc2ccc(Cl)cc2)nc(NCCCCNc2ccnc3cc(Cl)ccc23)n1 [DKG847]
SOLUBILITY ([3]; solvent named, Table 4): DMSO

Cc1cc(NCCCCNc2ccnc3cc(Cl)ccc23)nc(N2CCN(C)CC2)n1 [SM 501]
SOLUBILITY ([3]; solvent named, Table 3): DMSO

Cc1cc(Cl)nc(NCCCCNc2ccnc3cc(Cl)ccc23)n1 [11c]
IC50 [1, 4]: 0.664 µM
P. falciparum (W2 Clone) S.I. [1]: (>90)
IC50 [2, 5]: 0.196 µM
P. falciparum (D6 Clone) S.I. [2]: (>306)
IC50 (VERO cells): > 60 µM
IC50 (HepG2 cells): 39.8 µM
IC50 (LLC-PK-1 cells): > 60 µM

Cc1ccc(Nc2ccnc(NCCCNc3ccnc4cc(Cl)ccc34)n2)cc1 [DKG806]
SOLUBILITY ([3]; solvent named, Table 4): DMSO

COc1ccc(Nc2nc(NCCNCc3c4ccc(Cl)cc4nc4ccc(OC)cc34)nc(N(C)C)n2)cc1 [ATH 196]
SOLUBILITY ([3]; solvent named, Table 3): DMSO

Clc1ccc2c(NCCCNc3cc(Cl)nc(Cl)n3)ccnc2c1 [SM 710A]
SOLUBILITY ([3]; solvent named, Table 3): DMSO

OCCCCNc1nc(NCCCNc2ccnc3cc(Cl)ccc23)nc(N2CCOCC2)n1 [SM 361]
SOLUBILITY ([3]; solvent named, Table 3): DMSO

OCCNc1nc(NCCNc2ccnc3cc(Cl)ccc23)nc(N2CCCCC2)n1 [SM 365]
SOLUBILITY ([3]; solvent named, Table 3): DMSO

COc1cc(Nc2nc(NCCNc3c4ccc(Cl)cc4nc4ccc(OC)cc34)nc(N3CCCCC3)n2)cc(OC)c1 [ATH 158]
SOLUBILITY ([3]; solvent named, Table 3): DMSO

Clc1ccc2c(NCCNc3nccc(Nc4ccccc4)n3)ccnc2c1 [DKG821]
SOLUBILITY ([3]; solvent named, Table 4): DMSO

Clc1ccc2c(N3CCN(c4ccnc(N5CCCC5)n4)CC3)ccnc2c1 [ATH 252]
SOLUBILITY ([3]; solvent named, Table 3): DMSO

Cc1ccc(Nc2cc(C)nc(NCCCNc3ccnc4cc(Cl)ccc34)n2)cc1 [DKG858]
SOLUBILITY ([3]; solvent named, Table 4): DMSO

Clc1ccc2c(NCCNc3nccc(N4CCCCC4)n3)ccnc2c1 [SM 732]
SOLUBILITY ([3]; solvent named, Table 3): DMSO

Cc1cc(Cl)nc(NCCNc2ccnc3cc(Cl)ccc23)n1 [SM 488B]
SOLUBILITY ([3]; solvent named, Table 3): DMSO

CN1CCN(c2nc(Cl)cc(NCCCNc3ccnc4cc(Cl)ccc34)n2)CC1 [SM 713]
SOLUBILITY ([3]; solvent named, Table 3): DMSO

Cc1cc(NCCCCNc2ccnc3cc(Cl)ccc23)nc(NCCCCCCO)n1 [MT1-196]
SOLUBILITY [3, 7]: MeOH, DMSO

C[C@@H]1CC[C@H]2[C@@H](C)C(=O)O[C@@H]3O[C@@]4(C)CC[C@@H]1[C@]32OO4 [Artemisinine, reference compound]
IC50 [1, 4]: 0.012 µM
P. falciparum (W2 Clone) S.I. [1]: 5000
IC50 [2, 5]: 0.012 µM
P. falciparum (D6 Clone) S.I. [2]: 5000

Cc1ccccc1Nc1nc(Nc2ccccc2C)nc(NC(C)CNc2ccnc3cc(Cl)ccc23)n1 (stereo not drawn) [SM 146]
SOLUBILITY ([3]; solvent named, Table 3): DMSO

Clc1ccc2c(NCCCNc3ccnc(Cl)n3)ccnc2c1 [SM 719A]
SOLUBILITY ([3]; solvent named, Table 3): DMSO

Cc1cc(NCCCNc2ccnc3cc(Cl)ccc23)nc(NCCCCO)n1 [MT1-147]
SOLUBILITY [3, 7]: MeOH, DMSO

COc1ccc(Nc2nc(NCCCNc3c4ccc(Cl)cc4nc4ccc(OC)cc34)nc(NC3CCCCC3)n2)cc1 [ATH 201]
SOLUBILITY ([3]; solvent named, Table 3): DMSO

OCCNc1nccc(NCCCCNc2ccnc3cc(Cl)ccc23)n1 [MT1-156]
SOLUBILITY [3, 7]: MeOH, DMSO

OCCCNc1nc(NCCCCNc2ccnc3cc(Cl)ccc23)nc(N2CCCCC2)n1 [SM 372]
SOLUBILITY ([3]; solvent named, Table 3): DMSO

Clc1ccc2c(NCCNc3nccc(Nc4ccc(Br)cc4)n3)ccnc2c1 [DKG809]
SOLUBILITY ([3]; solvent named, Table 4): DMSO

Clc1ccc2c(NCCCNc3nc(Cl)cc(Cl)n3)ccnc2c1 [SM 710B]
SOLUBILITY ([3]; solvent named, Table 3): DMSO
